The record followed here is patent publication US10021879B2, “Fumigant compositions and methods based on hexafluoropropylene oxide (HFPO)” (priority 2016, dated 2018).

The nature of series [1]: Volatility of aqueous fumigant compositions with and without surfactant (weight loss). The format is physicochemical. To be noted: 10 grams HFPO + 4.0 grams Tween 80 in 40.0 grams water vs. 10.0 grams HFPO in 40 grams water; 20° C., vent open, weight loss every 30 seconds; FIG. 1. The protocol:
Experimentation was carried out to determine the volatility of aqueous fumigant compositions, both with and without inclusion of a surfactant. In each case, HFPO was placed in a chilled 500 ml Fischer Porter tube that was equipped with a vent to remove any gases. The vessel was cooled to 0° C. and was charged with varying amounts of water, HFPO and surfactant. The temperature was equilibrated to 20° C. and the reactor was placed on a balance. The vent tube was opened and the weight loss was recorded every 30 seconds.
In analyzing the effects of adding surfactant to an aqueous solution of HFPO, 10.0 grams of HFPO was added to 40 grams of water. In a separate experiment, 10 grams of HFPO and 4.0 grams of Tween™ 80 were added to 40.0 grams of water. FIG. 1 provides a graphical representation of the numerical data comparing the volatility of an aqueous solution of HFPO, both with and without inclusion of the Tween™ 80 nonionic surfactant.

The test system of another series is Lolium multiflorum Lam. Description: Fumigant test on seed germination in soil, Lolium multiflorum Lam. To be noted: for Loliium multiflorum Lam (seeds germinated): 15 seeds in soil, 2 days exposure, counted after 10 days. The format is in vivo. The protocol: (§1) In particular, in 440 mL pressure vessels, fourteen seeds of Abutilon theophrasti Medik and fifteen seeds of Lolium multiflorum Lam were thoroughly mixed with 50 mL (approximately 30 grams) of soil and 6 ml of water. The filled vessels were kept at room temperature for 20-24 hours to allow the seeds to imbibe water before treatment. The vessels were sealed and evacuated, and then 80 ml, 160 ml and 440 ml, respectively, of gaseous HFPO was added. The vessels were thoroughly mixed and placed horizontally on the laboratory bench at ambient temperature for two days. The contents of each bottle were transferred to a plastic sterile Petri dish containing 7 mL of water. The Petri dishes were sealed with parafilm and incubated in the laboratory at ambient temperature. After 10 days, the number of germinated seeds was counted.

The test system of series [2] is Abutilon theophrasti Medik. Description: Fumigant test on seed germination in soil, Abutilon theophrasti Medik. It counts as in vivo. To be noted: for Abutilon theophrastic Medik (seeds germinated): 14 seeds in soil, 2 days exposure, counted after 10 days. The protocol: as §1
Where [3] appears, read: 80 ml gaseous HFPO in 440 mL vessel.
[4] abbreviates: 160 ml gaseous HFPO in 440 mL vessel.
Setting [5] is: 440 ml gaseous HFPO in 440 mL vessel.

In the case of `FC(F)(F)C1(F)OC1(F)F` (stereo not drawn) [HFPO, 1,2-hexafluoropropylene oxide], the “retention of HFPO in aqueous solution (volatility)” value in series [1] is on record as “inclusion of the surfactant provides for longer retention of the HFPO in solution”. Moreover, the “Loliium multiflorum Lam (seeds germinated)” value with Lolium multiflorum Lam (setting [3]), in the series on Lolium multiflorum Lam (setting [4]) and in the series on Lolium multiflorum Lam (setting [5]) was 0 seeds germinated throughout. For the same compound, the “seed germination (in words)” value (in the series on Lolium multiflorum Lam (seeds of the grass weed species Lolium multiflorum Lam); in series [2] (seeds of the broadleaf species Abutilon theophrasti Medik)) was “completely prevented seed germination” in each case. Besides, the “Abutilon theophrastic Medik (seeds germinated)” value in series [2] (setting [3]), in series [2] (setting [4]) and in series [2] (setting [5]) was 0 seeds germinated in each case.
